Assay results: patent publication US9309187B2, “EP2 receptor agonists” (TAKEDA GMBH, priority 2012, dated 2016)

What was measured:
human EP2 receptor = biological target: T1, human EP2 receptor (Homo sapiens, UniProt P43116); test: EP2 binding assay (PGE2 displacement); conditions: recombinant human EP2 membranes, 1 nanoM [3H]-PGE2; reported as range bins; read-out: EP2 binding (PGE2 displacement) pIC50 (-log IC50) (converted)
T1 construct: purchased Millipore
Procedure: Method for Measuring Inhibition of PGE2 Binding to the Human Prostanoid Receptor EP2:
Human EP2 receptor equilibrium competition binding assays were performed according to Abramovitz et al. (M. Abramovitz et al. 2000, Biochimica et Biophysica Acta 1483: 285-293) in a final incubation volume of 100 microL in 50 milliM Bis-Tris, pH6.0 in 96-well plates. Radiolabelled Prostaglandin E2 (PGE2) (1 nanoM [^3H]-PGE2 purchased from Perkin Elmer) was added to the assay as competitive ligand. Test compounds stored as Dimethylsulfoxide (DMSO) stock solutions were added to the assay in serial dilutions in assay buffer while keeping the final DMSO concentration equal in each sample. The reaction was initiated by addition of membrane proteins harbouring human EP2 receptor (ChemiSCREEN™ membrane preparation recombinant human EP2 prostanoid receptor that was purchased by Millipore). Total binding was determined in the absence of test compound or PGE2 and non-specific binding was determined in the presence of 1 microM PGE2. Incubations were conducted for 60 minutes at room temperature until equilibrium was reached and terminated by filtration through GF/B filter (Perkin Elmer) prewetted with 0.3% PEI solution. Unbound radiolabelled PGE2 was removed by 8 wash cycles with the same buffer under ice-cold conditions and the filters containing the residual radioactivity were dried for 60 minutes at 60° C. In order to measure the filter bound radioactivity, 40 microL microscint (scintillation liquid) was added to each filter and the chemiluminescence was determined by TopCount-NTX™. The specific binding was calculated by subtracting non-specific binding from each sample. Percent inhibition by test compounds was calculated based on specific binding without test compound. Each sample was measured in triplicates per experiment and for the calculation of the pIC50 at least 2 independent experiments were performed. Determination of half maximal inhibiting concentration (IC50) was performed with GraphPad Prism Software.
The numbers of the compounds correspond to the examples numbers.
EP2 Binding Assay (PGE2 Displacement): pIC50 Values

[1] = test system: plasma TNFα after i.v. LPS; test: In vivo assay: LPS-induced TNFα release in mice; set-up: species or system C57BL/6 mice; conditions: Mus musculus; p.o. 1 h prior to i.v. LPS 100 μg/kg; plasma TNFα 1 h after LPS
Procedure: In Vivo Assay: LPS-Induced TNFα Release in Mice
Intravenously administration of lipopolysaccharide (LPS) causes a systemic inflammation characterised by release of pro-inflammatory cytokines, e.g. tumor necrosis factor alpha (TNFα). Selective EP2 agonists are administered per oral 1 h prior intravenously LPS challenge in mice. The anti-inflammatory activity of the selective EP2 agonists is assessed based on TNFα levels in blood plasma 1 h after LPS challenge.
Female C57BL/6 mice weighing 20-25 g were used. Mice were delivered 1 week prior to the experiments and had free access to water and food.
The test compound was mixed with 1.33% polyethylenglycol 400 (PEG400, Merck, Darmstadt, Germany) and subsequently suspended in 2% methocel solution (hypromellose, Sigma, Steinheim, Germany) using the Covaris S2X System (K Biosciences Ltd.; Hoddesdon; United Kingdom). The aimed doses were prepared by dilution series from the stock suspension, which was prepared for the administration of the highest dose in each experiment.
The administered volume of the compound suspension is 10 mL/kg. On day of the experiment the mouse body weights were documented to calculate the volume to be administered. LPS challenged control animals received drug-free vehicle solution as placebo. Test compounds and vehicle were administered by oral gavage 1 h prior to LPS challenge.
LPS (from Escherichia coli 055:B5, Sigma, Steinheim, Germany) was solubilised in 0.9% sterile NaCl solution (B. Braun Melsungen AG, Melsungen, Germany) containing 0.1% hydroxylamine (Sigma, Steinheim, Germany). LPS is intravenously (i.v.) injected at a dose of 100 μg/kg (5 mL/kg b.w.) 1 h after compound or vehicle administration.
One hour after LPS-challenge, the animals were sacrificed by inhalative isoflurane anaesthesia and heparinised blood was obtained by retroorbital bleeding. Blood was centrifuged (21,000×g, 4° C., 10 min), and plasma samples were kept frozen at −20° C. until determination of TNFα levels by ELISA. TNFα was measured with a commercially available ELISA-Kit (Quantikine® Immunoassay Mouse TNFα, R&D Systems, Minneapolis, USA).
The compound effect on TNFα release was calculated individually in percent (%) for each compound treated animal in relation to the mean TNFα level of the vehicle treated LPS-challenged control group: % effect=(Y−K)/K*100 • with defining: • Y=plasma TNFα concentration of the compound treated animal • K=mean plasma TNFα concentration of the vehicle treated group
Statistical analysis was performed on the primary TNFα concentrations by One-Way ANOVA and Dunnett's Multiple Comparison test vs. vehicle-treated control group.

[2] = test system: TNFalpha release in human peripheral blood mononuclear cells (PBMC) stimulated with LPS; test: Inhibition of LPS induced TNFalpha release in human PBMCs; format: cell-based; conditions: 1 ng/mL LPS, 24 hours, reported as range bins, read-out: Inhibition of LPS induced TNFalpha release in human PBMCs pIC30 (-log IC30)
Procedure: Method for Measuring the Inhibition of TNFalpha Release in Human Peripheral Blood MononuClear Cells (PBMC) Stimulated with LPS:
Assay was performed with some modifications of the method described by Hatzelmann and Schudt (Hatzelmann and Schudt 2001, J. Pharmacol. Exp. Therapeutics 297: 267-279) and the protocol “drawing of venous blood from healthy volunteers for in vitro studies” was approved by the ethics committee of the Landesärztekammer Baden Württemberg in Stuttgart. Peripheral blood mononuclear cells (PBMCs) were isolated from venous blood with the anticoagulant citrate from healthy donors according to standard protocols using Ficoll. The cell layer of PBMCs were washed twice with phosphate buffer solution and equilibrated at room temperature for 60 minutes. 500,000 PBMCs in 180 microL RPMI1640 cell medium supplemented with 10% FCS, NEAA (Non-essential-amino-acids), L-Glutamine and Sodium Pyruvate per sample were pre-incubated with 10 microL of a serial dilution of test compound or piclamilast as positive control for 60 min. at 37° C. After pre-incubation blood samples were stimulated by the addition of 10 microL LPS (Sigma, Aldrich) per sample resulting in a final concentration of 1 ng/mL LPS and a final volume of 200 microL. Cells were incubated for 24 hours at 37° C. TNFalpha levels were determined from cell supernatant that was obtained by a centrifugation step and transferring the supernatant to a new 96-well plate. Content of TNFalpha was determined via alphaLISA Technology according to manufacture protocol (Perkin Elmer).
PBMC samples that were not stimulated with LPS were used as control and set for 100% inhibition. PBMC samples that were stimulated with LPS and solvent instead of test compound were set as 0% inhibition. Percent inhibition was calculated based on these controls for each sample and since most compounds achieved saturating maximal inhibition of 60% a pIC30 value was calculated with GraphPad Prism Software.
For the following compounds the inhibitory values of TNFalpha release [determined as −log IC30=pIC30] in human PBMCs between 5.0 and 5.9, between 6.0 and 6.9, between 7.0 and 7.9 and between 8.0 and 9.0 have been determined. The numbers of the compounds correspond to the examples numbers.
Inhibition of LPS Induced TNFalpha Release Assay in Human PBMCs: pIC30

T1 sequence (P43116 whole entry): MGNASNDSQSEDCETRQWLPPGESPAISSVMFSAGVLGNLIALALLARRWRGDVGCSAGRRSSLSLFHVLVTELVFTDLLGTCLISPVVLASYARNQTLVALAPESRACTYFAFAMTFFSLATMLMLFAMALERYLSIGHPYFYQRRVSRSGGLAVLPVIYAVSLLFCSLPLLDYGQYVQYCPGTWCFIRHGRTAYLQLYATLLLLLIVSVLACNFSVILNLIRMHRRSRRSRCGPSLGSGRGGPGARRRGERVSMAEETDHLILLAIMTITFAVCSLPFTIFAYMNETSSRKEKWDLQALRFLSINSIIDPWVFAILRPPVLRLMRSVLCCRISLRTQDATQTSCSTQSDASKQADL

Compound | IC50 (human EP2 receptor) [nM] | ED50 [1] [mg/kg] | IC30 [2] [nM]
O=C(O)/C=C/c1cccc(NC(=O)c2cc(-c3ccccc3)cc3ccccc23)c1 [Example 1, (2E)-3-(3-{[(3-phenylnaphthalen-1-yl)carbonyl]amino}phenyl)prop-2-enoic acid] | 1.26 to 10 | 0.1 to 3 | 1 to 10
O=C(O)/C=C/c1ccc(F)c(NC(=O)c2cc(-c3ccccc3)cc3ccccc23)c1 [Example 2, (2E)-3-(4-fluoro-3-{[(3-phenylnaphthalen-1-yl)carbonyl]amino}phenyl)prop-2-enoic acid] | 1.26 to 10 | 0.1 to 3 | 1 to 10
O=C(O)/C=C/c1ccc(Cl)c(NC(=O)c2cc(-c3ccccc3)cc3ccccc23)c1 [Example 3, (2E)-3-(4-chloro-3-{[(3-phenylnaphthalen-1-yl)carbonyl]amino}phenyl)prop-2-enoic acid] | 1.26 to 10 | 0.1 to 3 | –
O=C(O)/C=C/c1ccc(F)c(NC(=O)c2cc(-c3ccccc3F)cc3ccccc23)c1 [Example 9, (2E)-3-{3-[({3-[2-fluorophenyl]naphthalen-1-yl}carbonyl)amino]-4fluorophenyl}prop-2-enoic acid] | 1.26 to 10 | 0.1 to 3 | 12.6 to 100
O=C(O)/C=C/c1ccc(F)c(NC(=O)c2cc(-c3cccc(F)c3)cc3ccccc23)c1 [Example 10, (2E)-3-{3-[({3-[3-fluorophenyl]naphthalen-1-yl}carbonyl)amino]-4fluorophenyl}prop-2-enoic acid] | 1.26 to 10 | 0.1 to 3 | 1 to 10
